In this assay the target is Protein cereblon/B-cell lymphoma 6 protein (Homo sapiens) (UniProt Q96SW2+P41182). Description: PROTAC activity at CRBN/N-terminal-HibiT tagged BCL6 in human HT-1080 cells transfected with pLV-UBC-N-HiBiT- BCL6-PGK-puro assessed as degradation of protein by measuring ratio of trough concentration of protein in cell compared to the concentration of protein before the cell contact with compound (Ymin) incubated for 5 hrs by luminescence based NANO-Glo HIBiT lytic detection assay. (HiBiT is a short tag that completes a luciferase, so light tracks the accessible tagged protein.)

Turning to `Cn1nc(C2CCC(=O)NC2=O)c2ccc(N3CCC(CN4CCN(c5ncc(F)c(Nc6ccc7c(c6)c6c(c(=O)n7C)OCC(F)(F)[C@H](C7CC7)N6)n5)CC4)CC3)cc21` (some centres not stated), the Activity amounted to 30%.

Regarding `Cn1nc(C2CCC(=O)NC2=O)c2cccc(N3CCC(CN4CCN(c5ncc(F)c(Nc6ccc7c(c6)c6c(c(=O)n7C)OCC(F)(F)[C@H](C7CC7)N6)n5)CC4)CC3)c21` (some centres not stated), the Activity is below 30%.

On to `Cn1nc(C2CCC(=O)NC2=O)c2cccc(N3CCC(CN4CCN(c5cc(Nc6ccc7c(c6)c6c(c(=O)n7C)OCC(F)(F)[C@H](C7CC7)N6)c(Cl)cn5)CC4)CC3)c21` (some centres not stated), for which the Activity is below 30%.

On to `Cn1nc(C2CCC(=O)NC2=O)c2cccc(N3CCC(OC4CCN(c5ncc(Cl)c(Nc6ccc7c(c6)c6c(c(=O)n7C)OCC(F)(F)[C@H](C7CC7)N6)n5)CC4)CC3)c21` (some centres not stated), for which the Activity was below 30%.

For `Cn1c(=O)c2c(c3cc(Nc4nc(N5CCN(CC6CCN(c7cccc8c7C(=O)N(C7CCC(=O)NC7=O)C8=O)CC6)CC5)ncc4Cl)ccc31)N[C@@H](C1CC1)C(F)(F)CO2` (some centres not stated), the Activity is below 30%.

On to `Cn1nc(C2CCC(=O)NC2=O)c2cccc(N3CCN(CC4CCN(c5ncc(Cl)c(Nc6ccc7c(c6)c6c(c(=O)n7C)OCC(F)(F)[C@H](C7CC7)N6)n5)CC4)CC3)c21` (some centres not stated), for which the Activity is below 30%.

Regarding `Cn1nc(C2CCC(=O)NC2=O)c2ccc(N3CCC(CN4CCN(c5cc(Nc6ccc7c(c6)c6c(c(=O)n7C)OCC(F)(F)[C@H](C7CC7)N6)c(Cl)cn5)CC4)CC3)cc21` (some centres not stated), the Activity is below 30%.

`C[C@@H](C1CCN(c2cccc3c(C4CCC(=O)NC4=O)nn(C)c23)CC1)N1CCN(c2ncc(Cl)c(Nc3ccc4c(c3)c3c(c(=O)n4C)OCC(F)(F)[C@H](C4CC4)N3)n2)CC1` (some centres not stated): the Activity is below 30%.

Consider `Cn1nc(C2CCC(=O)NC2=O)c2cccc(C3CCN(CC4CCN(c5ncc(F)c(Nc6ccc7c(c6)c6c(c(=O)n7C)OCC(F)(F)[C@H](C7CC7)N6)n5)CC4)CC3)c21` (some centres not stated), for which the Activity was below 30%.

Turning to `Cn1nc(C2CCC(=O)NC2=O)c2cccc(C3CCN(CC4CCN(c5ncc(Cl)c(Nc6ccc7c(c6)c6c(c(=O)n7C)OCC(F)(F)[C@H](C7CC7)N6)n5)CC4)CC3)c21` (some centres not stated), the Activity is below 30%.

In the case of `Cn1nc(C2CCC(=O)NC2=O)c2cccc(N3CCC(CN4CCN(c5ncc(Cl)c(Nc6ccc7c(c6)c6c(c(=O)n7C)OCC(F)(F)[C@H](C7CC7)N6)n5)CC4)CC3)c21` (some centres not stated), the Activity was below 30%.

In the case of `Cn1nc(C2CCC(=O)NC2=O)c2cccc(N3CCC(CN4CCN(c5ncc(Br)c(Nc6ccc7c(c6)c6c(c(=O)n7C)OCC(F)(F)[C@H](C7CC7)N6)n5)CC4)CC3)c21` (some centres not stated), the Activity was below 30%.

(Values after ChEMBL document CHEMBL5614457, “New Directions in Antibacterial, Anticancer, and Gene Editing Therapies” (ACS Med Chem Lett, 2024).)
